Experimental data reported in the supplement of paper PMC10307832.

What was measured:
Experiment in all cases: relative viability (nuclei count vs DMSO), 5 days (fraction); higher = more cells survive
[1] = compound: Cc1nc(Nc2ncc(C(=O)Nc3c(C)cccc3Cl)s2)cc(N2CCN(CCO)CC2)n1 [Dasatinib] + C[C@]1(O)C[C@@H](c2nc(-c3ccc4ccc(-c5ccccc5)nc4c3)c3c(N)nccn32)C1 [Linsitinib] (partner 1 µM)
Outline: (§1)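 One day after seeding in 1536-well plates, lung cancer cell lines were dosed by pin tool. Dosing was either single-drug or a fixed anchor-drug dose plus five library-drug doses (not always all listed) in √10 steps. After 5 days, nuclei were stained in one fix-and-stain step and counted on 4× images, and relative viability is the nuclei count of treated wells over that of vehicle wells, given as the median of duplicate plates.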

[2] = compound: Cc1ccc(C(=O)Nc2cccc(C(F)(F)F)c2)cc1Nc1cncc(C(N)=O)c1 [ALW-II-49-7] + NC(=O)Nc1cc(-c2cccc(F)c2)sc1C(=O)N[C@H]1CCCNC1 [AZD7762] (partner 0.2 µM)
Outline: as §1

[3] = compound: C1CC1C(=O)NC2=NNC3=C2C=CC(=C3)C4=CC(=CC=C4)C(=O)NC5CC5 [XMD13-2] + C[C@@H](Oc1cc(-c2cnn(C3CCNCC3)c2)cnc1N)c1c(Cl)ccc(F)c1Cl [Crizotinib] (partner 1 µM)
Outline: as §1

[4] = compound: Cc1ccc(C(=O)Nc2cccc(C(F)(F)F)c2)cc1Nc1cncc(C(N)=O)c1 [ALW-II-49-7] + CS(=O)(=O)N1CCN(Cc2cc3nc(-c4cccc5[nH]ncc45)nc(N4CCOCC4)c3s2)CC1 [Pictilisib] (partner 1 µM)
Outline: as §1

Cell Line	relative viability ([1]; first compound 0.005 µM)	relative viability ([1]; first compound 0.01581 µM)	relative viability ([1]; first compound 0.05 µM)	relative viability ([1]; first compound 0.1581 µM)	relative viability ([1]; first compound 0.5 µM)	relative viability ([2]; first compound 0.08 µM)	relative viability ([2]; first compound 0.253 µM)	relative viability ([2]; first compound 0.8 µM)	relative viability ([2]; first compound 2.53 µM)	relative viability ([2]; first compound 8 µM)	relative viability ([3]; first compound 0.05 µM)	relative viability ([3]; first compound 0.1581 µM)	relative viability ([3]; first compound 0.5 µM)	relative viability ([3]; first compound 1.581 µM)	relative viability ([3]; first compound 5 µM)	relative viability ([4]; first compound 0.08 µM)	relative viability ([4]; first compound 0.253 µM)	relative viability ([4]; first compound 0.8 µM)	relative viability ([4]; first compound 2.53 µM)	relative viability ([4]; first compound 8 µM)
201T	1.03	0.953	0.812	0.679	0.371	0.661	0.604	0.745	0.574	0.552	1	1.01	1	0.988	1.07	0.666	0.684	0.771	0.714	0.628
A549	0.518	0.348	0.34	0.211	0.0589						0.994	0.736	0.721	0.664	0.824	0.535	0.568	0.496	0.505	0.416
A-427	1.1	1.14	0.995	0.574	0.535	0.714	0.814	0.634	0.759	0.482	1.01	0.872	0.812	0.724	0.34	0.687	0.634	0.835	0.775	0.734
ABC-1	0.743	0.704	0.592	0.452	0.49	0.914	0.563	0.915		0.668	1.4	1.41	1.16	1.03	0.675	0.879	0.761	0.811	0.79	0.689
BEN	0.776	0.476	0.531	0.38	0.322	0.723	0.769	0.666	0.799	0.765	0.919	0.913	0.852	0.989	0.917	0.56	0.592	0.608		0.567
CAL-12T	0.848	0.853	0.853	0.46	0.286	0.5	0.641	0.744	0.349	0.588	0.76	0.816	0.572	0.538	0.874	0.343			0.715	0.395
COR-L23	0.867	0.665	0.613	0.329	0.242						0.746	0.51	0.765	0.653	0.759	0.839	0.548	0.739	0.72	0.779
COR-L 105	0.753	0.522	0.689	0.366	0.263						1	0.843	0.881	0.701	0.927	0.543	0.419	0.387	0.344	0.422
Calu-6	0.764	0.811	0.694	0.561	0.424						0.958	0.813	0.898	0.773	0.643	1.02	0.99	0.907	0.735	0.72
ChaGo-K-1						0.94	0.996	0.882	0.768	0.807	1.26	1.08	1.25		1.14	0.661	1.04	0.818	1.19	0.442
EBC-1	0.787	0.805	0.782	0.589	0.467						0.225	0.208	0.204	0.178	0.199	0.315	0.316		0.242	0.244
EKVX	0.945	0.683	0.778	0.314	0.142	0.665	0.619	0.821	0.574	0.646	1.05	1.21	1.06	0.977	1.12	0.42	0.475	0.438	0.398	0.499
EMC-BAC-2	0.685	0.482	0.525	0.26	0.201	1.09	1.21	0.916	1.11	0.896	0.818	0.79	0.795	0.745	0.36	0.507	0.59	0.567	0.556	0.46
EPLC-272H	1.24	1.28	1.46	0.92	0.338	0.169	0.251	0.278	0.248	0.198	1.02	0.76	1.09	0.802	0.25	0.258	0.359	0.328	0.37	0.29
H3255	0.929	0.918	0.957	0.658	0.287	0.938	1.06	0.874	0.801	0.574	0.972	0.694	0.699	0.884	0.784	0.505	0.43	0.48	0.335	0.418
HARA	0.971	0.67	0.516	0.247	0.189	0.325	0.28	0.3	0.375	0.347	1.2	1.05	1.13	1.1	0.486	0.416	0.386	0.431	0.483	0.497
HCC-15	0.862	0.773	0.766	0.599	0.555	1.22	1.14	1	1.39	1.25	0.925	0.766	0.857	0.793	0.472	0.849	0.791	0.705	0.805	0.741
